According to article PMC7726145, “Fine-tuning of lysine side chain modulates the activity of histone lysine methyltransferases” (Scientific Reports, 2020):
“Also recorded” adds a separate entry of the source.

Experiments:
Format in all cases: biochemical
GLP [1] = biological target: T1, GLP (Homo sapiens, UniProt Q9H9B1); assay: MALDI-TOF MS methylation assay with GLP; details: GLP 2 µM, peptide 100 µM, SAM 500 µM, Tris 50 mM, pH 8.0, 1 h at 37 °C
T1 construct: GLP residues 951–1235; His6 (N); made in house; host or cells: Escherichia coli Rosetta BL21 (DE3)pLysS
T1 sequence (Q9H9B1 982-1266): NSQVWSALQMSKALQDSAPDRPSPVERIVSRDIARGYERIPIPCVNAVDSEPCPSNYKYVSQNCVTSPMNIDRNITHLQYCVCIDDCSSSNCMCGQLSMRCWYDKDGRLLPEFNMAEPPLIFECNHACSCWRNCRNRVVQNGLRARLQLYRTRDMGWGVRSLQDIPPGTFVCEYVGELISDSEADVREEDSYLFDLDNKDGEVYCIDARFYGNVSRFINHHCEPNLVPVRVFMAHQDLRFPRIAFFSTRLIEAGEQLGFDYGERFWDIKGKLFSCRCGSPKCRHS
Procedure: (§1) Human KMTs enzymes were expressed and purified as previously described[36]–[38]. The methyltransferase plasmid (SETD8 residues 186–352, SETD7 residues 1–366, GLP residues 951–1235, G9a residues 913–1193) transformed into Escherichia coli Rosetta BL21 (DE3)pLysS cells. Cultures were grown at 37 °C in LB media containing kanamycin and chloramphenicol. Cells were grown to an OD600 of 0.5–0.6 (approximately 2.5–3 h), at which point they induced by isopropyl β-D-1-thiogalactopyranoside (IPTG) and they were transferred to a temperature of 16 °C overnight. After letting the cells grow at this temperature, they were then harvested and lysed by sonication. The lysate was centrifuged at high-speed to remove unbroken cells. The supernatant was then centrifuged to further clean the lysate. Purification of the N-terminally his6-tagged KMTs was performed using Ni–NTA affinity chromatography column, which was prewashed with lysis buffer. Target KMT enzyme was then eluted using a linear gradient concentration of imidazole. The elute was then concentrated with centrifugal concentrators (Millipore). All KMT enzymes were further purified by gel filtration on a Superdex 75 column (GE Healthcare) on an AKTA system.

G9a [2] = biological target: T2, G9a (Homo sapiens, UniProt Q96KQ7); assay: MALDI-TOF MS methylation assay with G9a; details: G9a 2 µM, peptide 100 µM, SAM 500 µM, Tris 50 mM, pH 8.0, 1 h at 37 °C
T2 construct: G9a residues 913–1193; His6 (N); made in house; host or cells: Escherichia coli Rosetta BL21 (DE3)pLysS
T2 sequence (Q96KQ7 913-1193): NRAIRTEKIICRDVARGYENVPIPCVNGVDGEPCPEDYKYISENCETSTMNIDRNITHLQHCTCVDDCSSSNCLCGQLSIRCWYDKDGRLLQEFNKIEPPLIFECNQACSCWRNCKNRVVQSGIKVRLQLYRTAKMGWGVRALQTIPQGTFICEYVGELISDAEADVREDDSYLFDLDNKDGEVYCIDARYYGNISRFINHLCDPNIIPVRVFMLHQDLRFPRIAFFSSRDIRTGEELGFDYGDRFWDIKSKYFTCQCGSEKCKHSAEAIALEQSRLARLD
Procedure: as §1

G9a [3] = biological target: T2, G9a; assay: Residual activity / inhibition of G9a-catalyzed methylation of H3K9; details: G9a 100 nM; 14-mer H3K9 5 µM; analogue 100 µM
Procedure: as §1

GLP [4] = biological target: T1, GLP; assay: Residual activity / inhibition of GLP-catalyzed methylation of H3K9; details: GLP 100 nM; 14-mer H3K9 5 µM; analogue 100 µM
Procedure: as §1

GLP [5] = biological target: T1, GLP; assay: NMR analysis of GLP-catalyzed methylation; details: GLP 8 µM; peptide 400 µM; SAM 2 mM; Tris-d11 buffer pD 8.0; 1 h at 37 °C; 1H NMR and 1H-13C HSQC
Procedure: as §1

SETD8 = biological target: T3, SETD8 (Homo sapiens, UniProt Q9NQR1); assay: SETD8 kinetics by MALDI-TOF MS enzymatic assay
T3 construct: SETD8 residues 186–352; His6 (N); made in house; host or cells: Escherichia coli Rosetta BL21 (DE3)pLysS
T3 sequence (Q9NQR1 186-352 isoform Q9NQR1-2): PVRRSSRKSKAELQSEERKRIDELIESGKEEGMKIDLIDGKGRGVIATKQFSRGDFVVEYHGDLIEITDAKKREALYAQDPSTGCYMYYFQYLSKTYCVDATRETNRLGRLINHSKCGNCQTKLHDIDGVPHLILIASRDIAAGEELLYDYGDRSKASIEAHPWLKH
Procedure: To determine the substrate specificity of SETD8 towards the two histone peptides bearing the unnatural lysine analogues KO and KN, a kinetic investigation was carried out employing a MALDI-TOF MS enzymatic assay[17],[18],[21]. KMT-catalyzed methylation of the oxalysine- and azalysine-containing histone peptides was characterized by slower substrate conversion rates (kcat) compared to their respective natural sequences, a result that we attribute to their poorer nucleophilic character due to the electron-withdrawing properties of the O and NH moieties. Furthermore, a highly hydrophobic channel of the methyltransferases is poorly tailored for significant electrostatic changes in the hydrophobic nature of the lysine side chain, likely leading to a larger penalty for desolvation of γ-azalysine and γ-oxalysine. Combined with the altered Km values for H4KO20 and H4KN20, this translated into a generally slightly worse catalytic efficiency for these two lysine analogues.
as §1, with “system. Purified proteins were concentrated employing Amicon Ultra Centrifugal Filter Units (Millipore) with suitable molecular weight cutoffs. Proteins concentrations were determined using the Nanodrop DeNovix DS-11 spectrophotometer and the purity was monitored by SDS-PAGE on a 4–15% gradient polyacrylamide gel (Bio-Rad).” for “system.”
Kinetics studies were performed as described[17],[18],[21]. A solution of histone peptide (0–300 μM), was added to a solution of SAM (116 μM) in assay buffer (50 mM Tris, pH 8.0) at room temperature (final volume of 100 μL). […]

SETD7 [6] = biological target: T4, SETD7 (Homo sapiens, UniProt Q8WTS6); assay: MALDI-TOF MS methylation assay with SETD7
T4 construct: SETD7 residues 1–366; His6 (N); made in house; host or cells: Escherichia coli Rosetta BL21 (DE3)pLysS
T4 sequence (Q8WTS6 1-366): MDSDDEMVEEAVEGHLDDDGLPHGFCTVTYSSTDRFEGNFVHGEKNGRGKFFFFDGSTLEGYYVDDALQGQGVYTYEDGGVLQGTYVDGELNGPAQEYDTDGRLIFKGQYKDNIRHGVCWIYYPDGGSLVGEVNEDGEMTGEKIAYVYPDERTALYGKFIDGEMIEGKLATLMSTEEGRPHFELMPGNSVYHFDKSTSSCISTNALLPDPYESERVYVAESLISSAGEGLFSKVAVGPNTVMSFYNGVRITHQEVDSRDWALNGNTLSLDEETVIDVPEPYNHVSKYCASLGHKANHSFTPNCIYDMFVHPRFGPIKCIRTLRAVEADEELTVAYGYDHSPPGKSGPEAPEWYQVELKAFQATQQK
Procedure: Histone peptides bearing the lysine analogues KO and KN were examined as substrates for the recombinantly expressed human KMTs using MALDI-TOF MS assays as a direct method to monitor histone methylation. We tested whether KO and KN can be methylated by di- and trimethyltransferases GLP and G9a, and monomethyltransferases SETD7 and SETD8. Samples containing the human KMT enzyme (2 µM), histone peptide (100 µM), and SAM (500 µM with GLP and G9a; 200 µM with SETD8 and SETD7) in Tris buffer (50 mM, pH 8.0) were incubated for 1 h at 37 °C. Following established enzymatic conditions[17]–[19],[21],[22], all lysine-containing histone peptides were efficiently methylated by the four KMTs (Fig. 5a,d,g,j, respectively). […] In the G9a assay, traces (< 5%) of the dimethylated species H3KO9me2 were also observed. […] We further analyzed the product distribution of these two peptide substrates with G9a and GLP throughout the time course of methylation.
Red spectra show 1 h reactions at 37 °C including KMTs (2 µM), histone peptide (100 µM) and SAM (500 µM for GLP/G9a and 200 µM for SETD8/SED7) and black spectra the no-enzyme controls.
The lack of methylation of these two analogues with SETD7 indicated a selectivity between KMTs.
as §1, with “system. Purified proteins were concentrated employing Amicon Ultra Centrifugal Filter Units (Millipore) with suitable molecular weight cutoffs. Proteins concentrations were determined using the Nanodrop DeNovix DS-11 spectrophotometer and the purity was monitored by SDS-PAGE on a 4–15% gradient polyacrylamide gel (Bio-Rad).” for “system.”
Histone methyltransferase assay was carried out as described in 30 µL final total volume[17]–[19],[21],[22]. In brief, purified KMTs enzymes (2 µM of each enzyme per each reaction) were incubated with 100 µM of purified histone peptides in the methyltransferase assay buffer Tris–HCl (pH 8.0) and methyl donor SAM (500 µM with GLP and G9a; 200 µM with SETD8 and SETD7) for 1 h at 37 °C. 3 µL of reaction mixture was quenched with an equal amount of MeOH (1:1 ratio). Then, 3 µL of this mixture was added to an equal amount volume of a standard α-cyano-4-hydroxycinnamic acid matrix solution for spotting on a MALDI plate (Stainless ground steel 96/12 Bruker-Daltonik, Bremen-Germany). The mass spectra of peptides were analyzed by MALDI-TOF MS. […]

SETD7 [7] = biological target: T4, SETD7; assay: Inhibition of SETD7-catalyzed methylation of 14-mer H3K4; details: for IC50: SETD7 200 nM, 14-mer H3K4 10 µM, inhibitor 1-200 µM, 4 repeats (dose-response of H3KO4)
Procedure: Residual activity assays monitoring the KMT-catalyzed methylation of the histone peptides were then carried out, aimed at providing competitive data of these two substrates as compared to the 14-mer H3K9 peptide for the active site of G9a/GLP, and to determine whether the two lysine analogues inhibit G9a- and GLP-catalyzed methylation of H3K9.
as §1, with “system. Purified proteins were concentrated employing Amicon Ultra Centrifugal Filter Units (Millipore) with suitable molecular weight cutoffs. Proteins concentrations were determined using the Nanodrop DeNovix DS-11 spectrophotometer and the purity was monitored by SDS-PAGE on a 4–15% gradient polyacrylamide gel (Bio-Rad).” for “system.”
Supplementary Figure 19. […] Error bars represent the standard deviation from 4 repeats.

[8] = SETD8 2 µM, peptide 0–300 μM, SAM 116 μM, 50 mM Tris, pH 8.0, room temperature, 10 min, MALDI-TOF MS, value ± SD, replicates
[9] = SETD7 2 µM, peptide 100 µM, SAM 200 µM, Tris 50 mM, pH 8.0, 1 h at 37 °C

Molecule: ARTKQTARK^9STGGKA [H3K9, native histone peptide, N-terminal 15-residues of H3]
- methylation products with GLP (GLP [1]): complete trimethylation
- methylation products with G9a (G9a [2]): complete trimethylation
- inhibition of G9a in words (G9a [3]): outcompetes H3KO9 and H3KN9 peptides for binding in the active site of G9a/GLP
- inhibition of GLP in words (GLP [4]): outcompetes H3KO9 and H3KN9 peptides for binding in the active site of G9a/GLP
- methylation observed by NMR (GLP [5]): resulted in a signal of H3K9me3

Molecule: GGAKRHRK^20VLRDNIQ [H4K20, native peptide fragment 13–27 of H4]
- kcat/Km (SETD8; SETD8 2 µM, peptide 0–300 μM, SAM 116 μM, 50 mM Tris, pH 8.0, room temperature, 10 min, MALDI-TOF MS): 86.8 M⁻¹ s⁻¹
- Km (SETD8; [8]): 104 ± 25.3 µM
- kcat (SETD8; [8]): 0.009 ± 0.00183 s⁻¹
- order in which SETD8 tolerates modifications at the γ position (kinetics) (SETD8; comparison of kinetics data including H4KC20 of ref 18): H4K20 > H4KC20 > H4KN20 > H4KO20

Molecule: C[C@H](N)C(=O)N[C@@H](CCCNC(=N)N)C(=O)N[C@H](C(=O)N[C@@H](CNCCN)C(=O)N[C@@H](CCC(N)=O)C(=O)N[C@H](C(=O)N[C@@H](C)C(=O)N[C@@H](CCCNC(=N)N)C(=O)N[C@@H](CCCCN)C(=O)N[C@@H](CO)C(=O)N[C@H](C(=O)NCC(=O)NCC(=O)N[C@@H](CCCCN)C(=O)N[C@@H](C)C(N)=O)[C@@H](C)O)[C@@H](C)O)[C@@H](C)O [H3KN4]
- methylation with SETD7 (SETD7 [6]; [9]): very low levels of methylation were detected; also recorded: significantly reduced
- monomethylated species (traces) with SETD7 (SETD7 [6]; [9]): < 5%
- methylation with SETD7 at high concentration, 1 h (SETD7 [6]; SETD7 10 µM, SAM 1 mM, 37 °C, 1 h): poorly catalyzed traces
- methylation with SETD7 at high concentration, 3 h (SETD7 [6]; SETD7 10 µM, SAM 1 mM, 37 °C, 3 h): poorly catalyzed traces; also recorded: only traces of H3KO4me and H3KN4me observed
- inhibition of SETD7 in words (SETD7 [7]; 14-mer H3K4 substrate): inactive
- IC50 (SETD7 [7]): > 100 µM

Molecule: C[C@H](N)C(=O)N[C@@H](CCCNC(=N)N)C(=O)N[C@H](C(=O)N[C@@H](COCCN)C(=O)N[C@@H](CCC(N)=O)C(=O)N[C@H](C(=O)N[C@@H](C)C(=O)N[C@@H](CCCNC(=N)N)C(=O)N[C@@H](CCCCN)C(=O)N[C@@H](CO)C(=O)N[C@H](C(=O)NCC(=O)NCC(=O)N[C@@H](CCCCN)C(=O)N[C@@H](C)C(N)=O)[C@@H](C)O)[C@@H](C)O)[C@@H](C)O [H3KO4]
- monomethylated species (traces) with SETD7 (SETD7 [6]; [9]): < 5%
- IC50 (SETD7 [7]): 38.9 µM
